We go through one compound from patent publication US12667546B2, “Methods for manipulating cell state transitions in cancer” (AGENCY FOR SCIENCE, TECHNOLOGY AND RESEARCH, priority 2018, dated 2026).

For the assay, the system named is BC24.1 and BC33.1. As to the kind of experiment: EMT and lineage markers in patient-derived ER+, luminal-like tumor cell lines. The class given is cell-based, human. On the procedure: Breast tissue biopsies from cancer patients were obtained from National Cancer Centre Singapore (NCCS) with patients' consent and under an IRB approved protocol (2015/2976). Tissue was digested with 1 mg/ml collagenase IV (Gibco) and 1 mg/ml dispase II (Thermo Fisher Scientific) in F12 media for 2 h while shaking in a 37° C. incubator. Cell suspension was then put through a cell strainer and centrifuged for 10 min at 1500 rpm. Cells were then washed twice and resuspended in media before seeding on irradiated 3T3 feeders as previously described. When confluent, sub-culturing was carried out by first lifting the feeders using 0.15% trypsin for 2 min. […]
Cells were rinsed twice in ice-cold PBS. Total RNA was extracted using Trizol (Invitrogen) and column-purified with RNeasy kits (Qiagen). cDNA synthesis was performed with 500 ng of total RNA at 37° C. for 2 h using the SuperScript III First-Strand Synthesis System (Thermo Fisher Scientific), and subsequently diluted 5-fold. mRNA levels were measured with gene-specific primers listed below using the ABI Prism 7900HT Sequence Detection System 2.2 (Applied Biosystems). Results were normalized to GAPDH and analyzed using SDS 2.2 software.
Cells were harvested and scraped from culture dishes in ice-cold PBS. […] Protein concentrations were determined using Coomaisse Blue. […]

Turning to `C=C(c1ccc(C(=O)O)cc1)c1cc2c(cc1C)C(C)(C)CCC2(C)C` [Bexarotene], the “expression of epithelial/mesenchymal or luminal/basal markers” value is “no dramatic change in the expression of the epithelial/mesenchymal or luminal/basal markers”.
